We go through 17 compounds from PMC10014601, “The cyclic peptide G4CP2 enables the modulation of galactose metabolism in yeast by interfering with GAL4 transcriptional activity” (Frontiers in Molecular Biosciences, 2023).

The nature of one data set: in vitro. The conditions noted are these: for Papp at 18 h / Papp: pH 7.4. The protocol: A 96-well acceptor microplate (PTFE, Millipore) was prepared by filled each well with 300 μL of PBS/DMSO (95:5, pH = 7.4), while the donor microplate artificial membrane (PVDF membrane, pore size […], Millipore) was carefully coated with 5 μL of PBL dissolved in dodecane ([…]). Each compound was dissolved in DMSO, diluted with PBS/DMSO (95:5, pH = 7.4) to a final concentration of 40–100 μM in the donor well, filtered with a Millex filter, and applied to the donor microplate wells (200 μL). Next, the donor plate was carefully placed on top of the acceptor plate, thereby bringing the artificial membrane in contact with the buffer solution underneath. The donor well was covered with a lid, and the whole system was left undisturbed overnight (18 h) at 25°C in a container sealed with damp paper towels to prevent evaporation. After incubation, the donor microplate was carefully removed, and UV-vis spectroscopy was used to determine the amounts of the tested compounds in the acceptor and donor microplate wells, respectively. Each sample was evaluated at five wavelengths in four wells during three separate runs; accordingly, all data are presented as mean values with relevant standard deviation. The permeability values (Pe,exp, cm/s) were calculated according to the following expression: Pe,exp = {−VdVa/[(Vd + Va)At]ln–1—da/deq}, in which Vd and Va represent the volumes of the donor and the acceptor wells, respectively, A is the surface of the artificial membrane, t is the permeation time, whilst da and deq are the absorbance measured in the acceptor well and the theoretical equilibrium absorbance value, respectively. After the PAMPA-BBB test for all compounds was completed, the integrity of the lipid membrane was evaluated based on the transport of Lucifer Yellow (Sigma-Aldrich)—a fluorescent molecule with very limited membrane permeability rejected by a uniform and integral lipid membrane performed according to the Millipore protocol lit. n. PC1545EN00 (https://www.sigmaaldrich.com/technical-documents/protocols/biology/membrane-integrity-test-for-lipid-pampa-artificial-membranes.html).

For data set [1] the following is noted: PAMPA-BBB literature value, cited from earlier work. The text has this: Supplement Table3.XLSX, sheet "Primer list" | column: Pe,lit
(In PAMPA a lipid-coated filter parts donor from acceptor wells.)

A further data set addresses T1, GAL4 (Saccharomyces cerevisiae, UniProt P04386).
T1 construct: endogenous in cells; host or cells: S. cerevisiae BY4741 (S288C derivative) with integrated GAL1p-YFP cassette
In words: pGAL1::YFP reporter fluorescence (YFP/OD600), BY4741 treated with chemically synthesized peptides (feeding). Type of data set: cell-based. The conditions noted are these: 100 µM peptide; 1.00 and 10.00 Gal/Glu ratios; 15.5 h. The protocol:
The fluorescence signal of BY4741 pGAL1::YFP reporter strain was measured using a Varioskan LUX multimode microplate reader (ThermoFisher Scientific). Overnight cultures were pelleted, washed twice in water and OD600 normalized for the different cultures. An equal volume of normalized cultures was pipetted in each well of a 96-well plate containing different galactose/glucose (Gal/Glu) ratios. When treating the cells with chemically synthesized G4CP2, a 10 mM stock solution (100% DMSO) was diluted to a working concentration of 100 µM in each well designated for treatment. Fluorescence and OD600 measurements were performed by incubating plates at 28°C, shaking 2 min at 180 rpm, before each measurement.
To test the effects of exogenous administration of chemically synthetized G4CP2 on pGAL1::YFP biosensor, a random-selected control peptide (CP11) was used. […] G4CP2 and CP11 were used at 100 µM to treat BY4741 pGAL1::YFP yeast cells grown in 96-well plates under 1.00 and 10.00 Gal/Glu ratios. YFP/OD600 values were again recorded for 15.5 h (Figure 4D).

The mark [2] stands for this setting: marked a (or a,b; then also Kerns et al., 2004), ref Di et al., 2003.
The mark [3] stands for this setting: marked b, ref Kerns et al., 2004.

Read-outs that look alike come from different tables or passages of the source. Where a SMILES comes first, the peptide text is derived from it. [ ]: non-standard residue; d: D form. βAla = NCCC(=O)O

The compound `CCn1cc(C(=O)O)c(=O)c2cc(F)c(N3CCNC(C)C3)c(F)c21` (stereo not shown) [Lomefloxacin] displayed a Papp at 18 h in “in vitro” (pig, PAMPA) of 1.4 ± 0.1 ×10⁻⁶ cm/s.
Take `Cn1c(=O)c2c(ncn2C)n(C)c1=O` [Caffeine]: in “in vitro” (PAMPA-BBB validation, porcine brain lipid in dodecane (20 mg/L), PBS/DMSO 95:5 pH 7.4, 40–100 μM donor, 18 h, 25°C, UV-vis, mean ± SD, four wells, three runs), the “Pe,exp” value is reported as 1.7 ± 0.2 10-6 cm/s.
Regarding `Cc1nnc2n1-c1ccc(Cl)cc1C(c1ccccc1)=NC2` [Alprazolam], the Papp in “in vitro” (pig, PAMPA) was 5.1 ± 0.4 ×10⁻⁶ cm/s. The “Pe,lit” value in data set [1] (setting [2]) is 5.4a 10-6 cm/s.
`CC(C)NCC(O)COc1ccc(CC(N)=O)cc1` (stereo not shown) [Atenolol]: the Papp at 18 h in “in vitro” (pig, PAMPA) is 0.74 ± 0.04 ×10⁻⁶ cm/s.
`CCn1cc(C(=O)O)c(=O)c2cc(F)c(N3CCNCC3)cc21` [Norfloxacin] displayed a Papp at 18 h in “in vitro” (pig, PAMPA) of 0.15 ± 0.01 ×10⁻⁶ cm/s.
The compound `CCn1cc(C(=O)O)c(=O)c2cc(F)c(N3CCNCC3)nc21` [Enoxacin] displayed a Papp at 18 h in “in vitro” (pig, PAMPA) of 0.98 ± 0.3 ×10⁻⁶ cm/s.
Regarding `O=C1Nc2ccc(Cl)cc2C(c2ccccc2)=NC1O` (stereo not shown) [Oxazepam], the “Pe,lit” value in data set [1] (setting [2]) was 10a 10-6 cm/s.
As to `CC(=O)[C@H]1CC[C@H]2[C@@H]3CCC4=CC(=O)CC[C@]4(C)[C@H]3CC[C@]12C` [Progesterone], the Papp at 18 h in the data set “in vitro” (pig, PAMPA) worked out at 10.9 ± 0.7 ×10⁻⁶ cm/s.
As for `CSCC[C@@H]1NC(=O)[C@H](CC(=O)O)NC(=O)[C@H](Cc2ccccc2)NC(=O)[C@H](Cc2ccccc2)NC(=O)[C@H](Cc2ccc(O)cc2)NC(=O)[C@H](CCCNC(=N)N)NC(=O)CCNC(=O)[C@H](Cc2ccc(O)cc2)NC(=O)[C@H](Cc2c[nH]c3ccccc23)NC1=O` [G4CP2] (cyclo(DMWY[βAla]RYFF)), in the data set “in vitro” (PAMPA), the passive permeability classification entry is listed as “moderate-to-good” and the Papp came out at 3.3 ± 0.4 ×10⁻⁶ cm/s. In addition, the “YFP fluorescence signal over time (YFP/OD600)” value at GAL4 is recorded as “strongly attenuated”.
In turn, `CN1C(=O)CN=C(c2ccccc2)c2cc(Cl)ccc21` [Diazepam] gave a Papp in “in vitro” (pig, PAMPA) of 13.7 ± 0.8 ×10⁻⁶ cm/s.
`OCCN(CCO)c1nc(N2CCCCC2)c2nc(N(CCO)CCO)nc(N3CCCCC3)c2n1` [Dipyridamole] came in with a Papp at 18 h in “in vitro” (pig, PAMPA) of 3.8 ± 0.4 ×10⁻⁶ cm/s. The “Pe,lit” value in data set [1] (setting [3]) is 3.5b 10-6 cm/s.
Regarding `CC(C)[C@H]1C(=O)O[C@H](C(C)C)C(=O)N(C)[C@@H](C(C)C)C(=O)O[C@H](C(C)C)C(=O)N(C)[C@@H](C(C)C)C(=O)O[C@H](C(C)C)C(=O)N1C` [EnB], the Papp at 18 h in the data set “in vitro” (PAMPA) amounted to 8.3 ± 0.7 ×10⁻⁶ cm/s.
For the compound `CN1C(C(=O)Nc2ccccn2)=C(O)c2ccccc2S1(=O)=O` [Piroxicam], the “Pe,lit” value in data set [1] (setting [2]) is 2.5a 10-6 cm/s.
For `COc1cc(Cc2cnc(N)nc2N)cc(OC)c1OC` [Trimethoprim], the Papp at 18 h in “in vitro” (pig, PAMPA) was determined as 2.5 ± 0.2 ×10⁻⁶ cm/s. In data set [1] (setting [3]), the “Pe,lit” value was 2.2b 10-6 cm/s.
As for `CN(C)CCCN1c2ccccc2Sc2ccc(Cl)cc21` [Chlorpromazine], the Papp at 18 h in “in vitro” (pig, PAMPA) was found to be 6.8 ± 0.3 ×10⁻⁶ cm/s.
On to `C/C=C/C[C@@H](C)[C@@H](O)[C@H]1C(=O)N[C@@H](C(C)C)C(=O)N(C)CC(=O)N(C)[C@@H](CC(C)C)C(=O)N[C@@H](C(C)C)C(=O)N(C)[C@@H](CC(C)C)C(=O)N[C@@H](C)C(=O)N[C@H](C)C(=O)N(C)[C@@H](CC(C)C)C(=O)N(C)[C@@H](CC(C)C)C(=O)N(C)[C@@H](C(C)C)C(=O)N1C` [CSD], for which the Papp in the data set “in vitro” (PAMPA) was 0.93 ± 0.5 ×10⁻⁶ cm/s.
`CCN(CC)CCCC(C)Nc1ccnc2cc(Cl)ccc12` (stereo not shown) [Chloroquine]: the Papp at 18 h in “in vitro” (pig, PAMPA) came out at 2.4 ± 0.1 ×10⁻⁶ cm/s.

Usually Papp stands for the rate of passage across a membrane or cell layer, normalised by area and donor concentration. Low readings indicate poor permeation, high ones ready permeation.
